Experimental findings from ChEMBL document CHEMBL1151441, “Antimicrobial susceptibilities and clinical sources of Dialister species” (2007) are described below.

The structures appear in SMILES notation. ≈ marks a conversion by molar mass, not a printed value.

The MIC is the lowest concentration found to suppress growth. Higher therefore signals a need for much substance. By MIC50 is commonly meant the lowest concentration that inhibits either 50% of growth or 50% of the strains tested, depending on the study. For orientation: MIC90 means the lowest concentration that inhibits either 90% of growth or 90% of the strains tested, depending on the study. The low end stands for higher susceptibility, the high end for lower susceptibility.

Holding throughout (assay type): functional
The subject of test [1] is Dialister propionicifaciens. Briefly: Antimicrobial activity against Dialister propionicifaciens assessed as susceptibility breakpoint by CA-SFM method.
Test [2] has as its system Dialister micraerophilus. As to the kind of experiment: Antimicrobial activity against Dialister micraerophilus assessed as susceptibility breakpoint by CLSI method.
Test [3] relates to Dialister pneumosintes. Briefly: Antimicrobial activity against Dialister pneumosintes assessed as susceptibility breakpoint by CA-SFM method.
For test [4], the system named is Dialister micraerophilus. Briefly: Antimicrobial activity against Dialister micraerophilus assessed as susceptibility breakpoint by CA-SFM method.
Test [5] relates to Dialister invisus. Briefly: Antimicrobial activity against Dialister invisus assessed as susceptibility breakpoint by CA-SFM method.
Test [6] deals with Dialister micraerophilus. As to the kind of experiment: Antimicrobial activity against Dialister micraerophilus by agar dilution method.
Test [7] deals with Dialister propionicifaciens. Briefly: Antimicrobial activity against Dialister propionicifaciens by agar dilution method. (In general: In agar dilution the substance is mixed into plates at graded concentrations.)
Test [8] has as its system Dialister propionicifaciens. As to the kind of experiment: Antimicrobial activity against Dialister propionicifaciens assessed as susceptibility breakpoint by CLSI method.
Test [9] concerns Dialister pneumosintes. Briefly: Antimicrobial activity against Dialister pneumosintes assessed as susceptibility breakpoint by CLSI method.
The subject of test [10] is Dialister invisus. As to the kind of experiment: Antimicrobial activity against Dialister invisus assessed as susceptibility breakpoint by CLSI method.
In test [11] the test system is Dialister pneumosintes. As to the kind of experiment: Antimicrobial activity against Dialister pneumosintes by agar dilution method.
Test [12] deals with Dialister invisus. Briefly: Antimicrobial activity against Dialister invisus by agar dilution method.

For the compound `C[C@@H](O)[C@H]1C(=O)N2C(C(=O)O)=C(S[C@@H]3CN[C@H](C(=O)Nc4cccc(C(=O)O)c4)C3)[C@H](C)[C@H]12`, the Activity result (in [1]; in the test with Dialister micraerophilus [2]; in the test on Dialister pneumosintes [3]; in the test with Dialister micraerophilus [4]; in the test on Dialister invisus [5]; in test [8]) was “<=4 ug ml-1” in each case. Further, the Activity entry in the test with Dialister pneumosintes [9] and with Dialister invisus [10] was “<=4 ug ml-1” throughout. In addition, the MIC (against Dialister micraerophilus [6]; in [7]; against Dialister pneumosintes [11]) was 0.125 µg/mL (≈ 0.263 µM) in each case. Besides, in the test on Dialister pneumosintes [11], the MIC50 came out at 0.125 µg/mL (≈ 0.263 µM). The same compound gave an MIC90 in the test with Dialister pneumosintes [11] of 0.125 µg/mL (≈ 0.263 µM).

Turning to `CC1(C)S[C@@H]2[C@H](NC(=O)[C@H](N)c3ccc(O)cc3)C(=O)N2[C@H]1C(=O)O` [AMOXICILLIN], the Activity entry (in [1]; with Dialister micraerophilus [2]; in the test with Dialister pneumosintes [3]; in the test with Dialister micraerophilus [4]; in the test with Dialister invisus [5]; in [8]) was “<=0.5 ug ml-1” throughout. Also, the Activity entry with Dialister pneumosintes [9] and in the test on Dialister invisus [10] was “<=0.5 ug ml-1” in each case. The MIC (in the test on Dialister micraerophilus [6]; against Dialister invisus [12]; in test [7]; in the test with Dialister pneumosintes [11]) was no more than 0.06 µg/mL throughout. Also, the MIC50 with Dialister micraerophilus [6] and in the test on Dialister pneumosintes [11] was no more than 0.06 µg/mL throughout. In addition, the MIC90 against Dialister micraerophilus [6] and in the test with Dialister pneumosintes [11] was no more than 0.06 µg/mL in each case.

Take `CO[C@@]1(NC(=O)Cc2cccs2)C(=O)N2C(C(=O)O)=C(COC(N)=O)CS[C@@H]21` [CEFOXITIN]: the Activity result in test [1] is listed as “<=8 ug ml-1”; in the test with Dialister micraerophilus [2], “<=16 ug ml-1”; in the test on Dialister pneumosintes [3], “<=8 ug ml-1”; with Dialister micraerophilus [4] it was “<=8 ug ml-1”; in the test on Dialister invisus [5] it was “<=8 ug ml-1”; in test [8], “<=16 ug ml-1”. The Activity entry in the test with Dialister pneumosintes [9] and with Dialister invisus [10] was “<=16 ug ml-1” throughout. The MIC (in the test on Dialister micraerophilus [6]; with Dialister invisus [12]; in test [7]; in the test on Dialister pneumosintes [11]) was 0.5 µg/mL (≈ 1.17 µM) in each case. The MIC50 in the test on Dialister micraerophilus [6] and in the test with Dialister pneumosintes [11] was 0.5 µg/mL (≈ 1.17 µM) throughout. Moreover, the MIC90 came out at 0.5 µg/mL (≈ 1.17 µM) in the test with Dialister micraerophilus [6] and 1 µg/mL (≈ 2.34 µM) with Dialister pneumosintes [11].

For `CC(=O)OCC1=C(C(=O)O)N2C(=O)[C@@H](NC(=O)Cc3cccs3)[C@H]2SC1` [CEPHALOTHIN], the Activity entry (in test [1]; with Dialister pneumosintes [3]; in the test with Dialister micraerophilus [4]; in the test with Dialister invisus [5]) was “<=8 ug ml-1” each time. Besides, the MIC (in the test with Dialister micraerophilus [6]; in test [7]; in the test on Dialister pneumosintes [11]) was 0.25 µg/mL (≈ 0.631 µM) each time. In the test with Dialister pneumosintes [11], the MIC50 was 0.5 µg/mL (≈ 1.26 µM). The compound also yielded an MIC90 in the test on Dialister pneumosintes [11] of 1 µg/mL (≈ 2.52 µM).

For `O=C(O)c1cn(C2CC2)c2cc(N3CCNCC3)c(F)cc2c1=O` [CIPROFLOXACIN], the Activity entry (in [1]; in the test with Dialister pneumosintes [3]; with Dialister micraerophilus [4]; with Dialister invisus [5]) was “<=0.5 ug ml-1” each time. In addition, the MIC (against Dialister micraerophilus [6]; against Dialister invisus [12]; in [7]; in the test on Dialister pneumosintes [11]) was no more than 0.06 µg/mL each time. For the same compound, the MIC50 against Dialister micraerophilus [6] and against Dialister pneumosintes [11] was no more than 0.06 µg/mL throughout. The MIC90 against Dialister micraerophilus [6] and in the test with Dialister pneumosintes [11] was no more than 0.06 µg/mL each time.

As to `C[C@H]1c2cccc(O)c2C(=O)C2=C(O)[C@]3(O)C(=O)C(C(N)=O)=C(O)[C@@H](N(C)C)[C@@H]3[C@@H](O)[C@@H]21.O` [DOXYCYCLINE], the Activity result (in [1]; in the test with Dialister pneumosintes [3]; in the test on Dialister micraerophilus [4]; in the test on Dialister invisus [5]) was “<=4 ug ml-1” each time. For the same compound, the MIC (against Dialister micraerophilus [6]; in test [7]; in the test with Dialister pneumosintes [11]) was no more than 0.06 µg/mL throughout. Besides, the MIC50 against Dialister pneumosintes [11] came to 0.25 µg/mL. Also, the MIC90 against Dialister pneumosintes [11] amounted to 0.25 µg/mL.

Regarding `CC[C@H]1OC(=O)[C@H](C)[C@@H](O[C@H]2C[C@@](C)(OC)[C@@H](O)[C@H](C)O2)[C@H](C)[C@@H](O[C@@H]2O[C@H](C)C[C@H](N(C)C)[C@H]2O)[C@](C)(O)C[C@@H](C)C(=O)[C@H](C)[C@@H](O)[C@]1(C)O` [ERYTHROMYCIN], the Activity entry (in test [1]; with Dialister pneumosintes [3]; in the test with Dialister micraerophilus [4]; in the test with Dialister invisus [5]) was “<=1 ug ml-1” in each case. For the same compound, the MIC (with Dialister micraerophilus [6]; in [7]; with Dialister pneumosintes [11]) was 0.125 µg/mL (≈ 0.17 µM) throughout. Also, the MIC50 in the test with Dialister pneumosintes [11] was found to be 1 µg/mL (≈ 1.36 µM). The compound also gave an MIC90 against Dialister pneumosintes [11] of 2 µg/mL (≈ 2.73 µM).

For the compound `C[C@H]1COc2c(N3CCN(C)CC3)c(F)cc3c(=O)c(C(=O)O)cn1c23.C[C@H]1COc2c(N3CCN(C)CC3)c(F)cc3c(=O)c(C(=O)O)cn1c23.O` [LEVOFLOXACIN], the Activity entry (in test [1]; in the test with Dialister pneumosintes [3]; in the test with Dialister micraerophilus [4]; with Dialister invisus [5]) was “<=1 ug ml-1” in each case. Also, the minimum inhibitory concentration (MIC) (in the test on Dialister micraerophilus [6]; in [7]; against Dialister pneumosintes [11]) was 0.25 µg/mL throughout. For the same compound, in the test on Dialister pneumosintes [11], the MIC50 is 0.25 µg/mL. Also, in the test with Dialister pneumosintes [11], the MIC90 came out at 0.5 µg/mL.

In the case of `COc1c(N2C[C@@H]3CCCN[C@@H]3C2)c(F)cc2c(=O)c(C(=O)O)cn(C3CC3)c12` [MOXIFLOXACIN], the Activity entry with Dialister pneumosintes [3] and in the test with Dialister micraerophilus [4] was “<=1 ug ml-1” each time. Further, the MIC (against Dialister micraerophilus [6]; in the test with Dialister invisus [12]; in test [7]; in the test on Dialister pneumosintes [11]) was no more than 0.06 µg/mL each time. Moreover, the MIC50 with Dialister micraerophilus [6] and against Dialister pneumosintes [11] was no more than 0.06 µg/mL each time. For the same compound, the figures for the MIC90 against Dialister micraerophilus [6] and in the test with Dialister pneumosintes [11] were 0.25 µg/mL (≈ 0.623 µM) and 0.06 µg/mL (≈ 0.149 µM), respectively.

In the case of `CO[C@H]1/C=C/O[C@@]2(C)Oc3c(C)c(O)c4c(O)c(c(/C=N/N5CCN(C)CC5)c(O)c4c3C2=O)NC(=O)/C(C)=C\C=C\[C@H](C)[C@H](O)[C@@H](C)[C@@H](O)[C@@H](C)[C@H](OC(C)=O)[C@@H]1C` [RIFAMPIN], the Activity entry (in test [1]; in the test with Dialister pneumosintes [3]; with Dialister micraerophilus [4]; with Dialister invisus [5]) was “<=2 ug ml-1” in each case. Further, the MIC (in the test on Dialister micraerophilus [6]; in the test on Dialister invisus [12]; in test [7]; against Dialister pneumosintes [11]) was no more than 0.06 µg/mL each time. The MIC50 with Dialister micraerophilus [6] is no more than 0.06 µg/mL; against Dialister pneumosintes [11], 2 µg/mL (≈ 2.43 µM). The MIC90 was no more than 0.06 µg/mL against Dialister micraerophilus [6] and 4 µg/mL (≈ 4.86 µM) against Dialister pneumosintes [11].

`CC[C@H]1OC(=O)[C@H](C)C(=O)[C@H](C)[C@@H](O[C@@H]2O[C@H](C)C[C@H](N(C)C)[C@H]2O)[C@](C)(OC)C[C@@H](C)C(=O)[C@H](C)[C@H]2N(CCCCn3cnc(-c4cccnc4)c3)C(=O)O[C@]12C` [TELITHROMYCIN]: the Activity result (in test [1]; in the test with Dialister pneumosintes [3]; in the test with Dialister micraerophilus [4]; with Dialister invisus [5]) was “<=0.5 ug ml-1” each time. The MIC (in the test on Dialister micraerophilus [6]; against Dialister invisus [12]; in test [7]; in the test on Dialister pneumosintes [11]) was no more than 0.06 µg/mL throughout. Further, the MIC50 against Dialister micraerophilus [6] and against Dialister pneumosintes [11] was no more than 0.06 µg/mL each time. The MIC90 against Dialister micraerophilus [6] and with Dialister pneumosintes [11] was no more than 0.06 µg/mL each time.
